Measurements as given in ChEMBL document CHEMBL1909046, “DrugMatrix in vitro pharmacology data”.

Tests used:
[1] = DRUGMATRIX: Purinergic P2X radioligand binding (ligand: [3H] alpha, beta-Methylene-ATP); assay type: cell membranes, Oryctolagus cuniculus, New Zealand albino, Urinary bladder, Membrane; details: Not Active = under 50% inhibition at 10 µM
[2] = molecular target: Mitogen-activated protein kinase 1 (Homo sapiens, UniProt P28482); experiment: DRUGMATRIX: Protein Serine/Threonine Kinase, ERK2 enzyme inhibition (substrate: Myelin Basic Protein); design: species or system Escherichia coli; details: Not Active = under 50% inhibition at 10 µM
Chain of Mitogen-activated protein kinase 1 (P28482 whole entry): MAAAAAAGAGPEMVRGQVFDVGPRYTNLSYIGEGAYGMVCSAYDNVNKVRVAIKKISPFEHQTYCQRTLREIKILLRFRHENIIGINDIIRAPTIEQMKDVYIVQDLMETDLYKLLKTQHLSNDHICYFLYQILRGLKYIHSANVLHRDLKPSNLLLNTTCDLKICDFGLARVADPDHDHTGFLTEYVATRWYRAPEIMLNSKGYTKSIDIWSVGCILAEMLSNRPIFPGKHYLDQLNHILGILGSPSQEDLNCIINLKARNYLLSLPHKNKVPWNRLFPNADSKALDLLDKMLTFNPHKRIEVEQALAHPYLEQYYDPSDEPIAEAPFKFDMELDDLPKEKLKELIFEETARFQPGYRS

[3] = DRUGMATRIX: Glutamate, AMPA radioligand binding (ligand: [3H] AMPA); assay type: cell membranes, Rattus norvegicus, Wistar, Cerebral cortex, Membrane; details: Not Active = under 50% inhibition at 10 µM
[4] = molecular target: Kappa-type opioid receptor (Homo sapiens, UniProt P41145); experiment: DRUGMATRIX: Opiate kappa (OP2, KOP) radioligand binding (ligand: [3H] Diprenorphine); assay type: cell membranes, HEK293, Membrane; details: Not Active = under 50% inhibition at 10 µM
Chain of Kappa-type opioid receptor (P41145 whole entry): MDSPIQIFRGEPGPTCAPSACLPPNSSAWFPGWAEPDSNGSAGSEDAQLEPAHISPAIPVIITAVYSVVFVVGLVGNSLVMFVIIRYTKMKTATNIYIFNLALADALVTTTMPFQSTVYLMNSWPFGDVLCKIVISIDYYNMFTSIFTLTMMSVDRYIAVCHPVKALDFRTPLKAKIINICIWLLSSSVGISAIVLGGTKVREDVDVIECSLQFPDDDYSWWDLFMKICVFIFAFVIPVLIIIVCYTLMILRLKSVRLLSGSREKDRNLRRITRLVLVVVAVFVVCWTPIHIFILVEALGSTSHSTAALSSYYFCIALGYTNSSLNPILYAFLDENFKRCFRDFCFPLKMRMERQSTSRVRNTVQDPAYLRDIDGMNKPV

[5] = molecular target: T1, Alpha-1D adrenergic receptor (Homo sapiens, UniProt P25100); assay type: cell membranes, HEK293, Membrane; details: hek293; further: in other assays of this panel Not Active means under 50% inhibition at 10 µM
T1 sequence (P25100 whole entry): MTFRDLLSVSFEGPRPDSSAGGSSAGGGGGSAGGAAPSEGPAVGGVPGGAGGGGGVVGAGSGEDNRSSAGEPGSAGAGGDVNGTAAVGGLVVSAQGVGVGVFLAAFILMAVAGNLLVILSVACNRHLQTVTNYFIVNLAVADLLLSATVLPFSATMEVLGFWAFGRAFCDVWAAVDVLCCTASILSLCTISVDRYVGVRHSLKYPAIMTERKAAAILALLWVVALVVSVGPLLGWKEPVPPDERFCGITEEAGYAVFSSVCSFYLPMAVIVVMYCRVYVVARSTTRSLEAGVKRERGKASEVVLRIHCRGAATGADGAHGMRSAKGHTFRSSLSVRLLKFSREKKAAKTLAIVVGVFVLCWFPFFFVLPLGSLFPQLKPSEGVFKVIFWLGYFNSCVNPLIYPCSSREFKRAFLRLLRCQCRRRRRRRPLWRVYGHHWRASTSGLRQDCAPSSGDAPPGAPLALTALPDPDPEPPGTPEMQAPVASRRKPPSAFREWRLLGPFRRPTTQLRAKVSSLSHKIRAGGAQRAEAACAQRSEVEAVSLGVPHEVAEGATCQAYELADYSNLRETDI

[6] = DRUGMATRIX: Potassium Channel [KATP] radioligand binding (ligand: [3H] Glyburide); assay type: cell membranes, Membrane; details: hit-t15; Not Active = under 50% inhibition at 10 µM

| Compound | IC50 [1] | Ki [1] | IC50 [2] | IC50 [3] | Ki [3] | IC50 ([4]; hek293) | IC50 [5] | IC50 [6] | Ki [6] | Ki [4] [nM] | IC50 ([4]; read-out: IC50) [nM] |
| --- | --- | --- | --- | --- | --- | --- | --- | --- | --- | --- | --- |
| CC(C)(C#N)c1cc(Cn2cncn2)cc(C(C)(C)C#N)c1 [ANASTROZOLE] | Not Active | Not Active | Not Active | Not Active | Not Active | Not Active | Not Active | Not Active | Not Active |  |  |
| CC12CCC(CC1=O)C2(C)C (stereo unspecified) [CAMPHOR] | Not Active | Not Active | Not Active | Not Active | Not Active | Not Active | Not Active | Not Active | Not Active |  |  |
| CC12CCC(CC1)C(C)(C)O2 [EUCALYPTOL] | Not Active | Not Active | Not Active | Not Active | Not Active | Not Active | Not Active | Not Active | Not Active |  |  |
| Cc1ccnc2c1NC(=O)c1cccnc1N2C1CC1 [NEVIRAPINE] | Not Active | Not Active | Not Active | Not Active | Not Active | Not Active | Not Active | Not Active | Not Active |  |  |
| Clc1cc(Cl)c(OCC#CI)cc1Cl [HALOPROGIN] | Not Active | Not Active | Not Active | Not Active | Not Active |  | Not Active | Not Active | Not Active | 459 | 1150 |
| Oc1ccccc1 [PHENOL] | Not Active | Not Active | Not Active | Not Active | Not Active | Not Active | Not Active | Not Active | Not Active |  |  |
| CCCCCCNC(=O)n1cc(F)c(=O)[nH]c1=O [CARMOFUR] | Not Active | Not Active | Not Active | Not Active | Not Active | Not Active | Not Active | Not Active | Not Active |  |  |
| Nc1ccc(C(=O)O)c(O)c1 [AMINOSALICYLIC ACID] | Not Active | Not Active | Not Active | Not Active | Not Active | Not Active | Not Active | Not Active | Not Active |  |  |
| COc1cc(NC(C)CCCN)c2ncccc2c1 (stereo unspecified) [PRIMAQUINE] | Not Active | Not Active | Not Active | Not Active | Not Active | Not Active | Not Active | Not Active | Not Active |  |  |
| Cc1cc(C(C)(C)C)c(O)c(C)c1CC1=NCCN1 [OXYMETAZOLINE] | Not Active | Not Active | Not Active | Not Active | Not Active | Not Active |  | Not Active | Not Active |  |  |
| O=c1[nH]cnc2c1ncn2[C@H]1CC[C@@H](CO)O1 [DIDANOSINE] | Not Active | Not Active | Not Active | Not Active | Not Active | Not Active | Not Active | Not Active | Not Active |  |  |
| CC(=O)[C@]1(O)Cc2c(O)c3c(c(O)c2[C@@H](O[C@H]2C[C@H](N)[C@H](O)[C@H](C)O2)C1)C(=O)c1ccccc1C3=O [IDARUBICIN] | Not Active | Not Active | Not Active | Not Active | Not Active | Not Active | Not Active | Not Active | Not Active |  |  |
| COC(=O)Nc1nc2ccc(Sc3ccccc3)cc2[nH]1 [FENBENDAZOLE] | Not Active | Not Active | Not Active | Not Active | Not Active | Not Active | Not Active | Not Active | Not Active |  |  |
| CC(C)(c1ccc(O)cc1)c1ccc(O)cc1 [BISPHENOL A] | Not Active | Not Active | Not Active | Not Active | Not Active | Not Active | Not Active | Not Active | Not Active |  |  |
